According to publication PMC5608804, “Stepwise Evolution Improves Identification of Diverse Peptides Binding to a Protein Target” (Scientific Reports, 2017):

Molecular target: T1, streptavidin (Streptomyces avidinii, UniProt P22629)
T1 construct: purchased GE Healthcare (Little Chalfont, UK)
Test: Cy5-streptavidin binding on HotSpot discovery array, 5-mer L-peptide library
Settings: 5-mer L-peptide library array, Cy5-streptavidin; from average of three arrays
From the text: To identify hotspot sequences that bind to streptavidin (SA), we bound Cy5-SA to an array library of 2,476,099 5-mer L-peptides synthesized with 19 of 20 natural amino acids (excluding cysteine). The fluorescence signal intensity was aggregated across three independently synthesized arrays; then the 2,047 peptides with a signal-to-background ratio (S/B) >4 were selected. The data was further filtered to select 1,100 peptides for which signal intensities were highly correlated on all 3 arrays (the percentage of mean deviation to mean was <10%, see Supplementary dataset Table 2A). Most selected sequences (1,019 of 1,100) contained HP, PQ, or PM sequences: their presence would be expected in the well-known HPQ and HPM streptavidin binders[13]–[18].
The comprehensive peptide library included 2,476,099 5-mer peptides synthesized in a single copy with 19 of 20 L- or D-amino acids (excluding cysteine). Libraries were flanked on both N- and C-termini by linkers of 1 or 3 amino acids using a 3:1 glycine-serine mixture.
Cy5™-streptavidin (Cy5-SA) was purchased from GE Healthcare (Little Chalfont, UK). Freshly deprotected arrays were used in each experiment. Streptavidin binding to all arrays was performed with 0.5 µg/ml Cy5-SA either in binding buffer containing 10 mM Tris-HCl (pH 7.4), 1% alkali-soluble casein (EMD Millipore), 0.05% Tween-20 or in 10 mM Tris-HCl (pH 7.4), 4% BSA (Roche, Basel, Switzerland), 0.05% Tween-20 in a 30 mL PAP Jar container (Evergreen Scientific, Vernon, CA) overnight at 4° C. After incubation, arrays were washed in 20 mM Tris-HCl (pH 7.8), 0.2 M NaCl, 1% SDS or 1X TBS (pH 7.4) for 30 sec followed by a 1 min wash in water, and then dried by spinning in a microcentrifuge equipped with an array holder.
Cy5 fluorescence intensity of the arrays was measured with an MS200 scanner (Roche NimbleGen, Madison, WI) at resolution 2 µm, wavelength 635 nm, gain 25%, and laser intensity 100%. Cy5 signal intensities were extracted using Image Extraction Software (Roche NimbleGen). Data pre-processing, normalization, and statistical tests were performed using the language R. Data visualization and analysis was performed with the Spotfire 6.5.0 (Tibco, Boston, MA) software platform. Distance analysis and principle component analysis of distance matrices were performed with the R package PEPLIB[19].

T1 sequence (P22629 25-183): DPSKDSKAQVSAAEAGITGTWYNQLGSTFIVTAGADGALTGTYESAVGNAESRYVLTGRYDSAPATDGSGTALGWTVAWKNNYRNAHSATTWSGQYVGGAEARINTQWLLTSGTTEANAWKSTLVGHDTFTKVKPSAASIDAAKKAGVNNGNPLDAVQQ

Substance	S/B (signal to background ratio)
GHPQG	135.5
RHPQF	125.0
YWHPM	54.2
VHPQH	31.7
NKHPM	20.7
FFHPQ	192.2
HPQVF	56.9
YWHPQ	148.0
HPQIG	31.0
QNHPQ	135.0
MHPMS	25.8
VLHPM	32.2
PYHPM	54.5
NWHPQ	184.8
PDHPM	23.4
QGHPM	56.0
AHPQQ	34.0
HPQHF	18.9
YHPQK	19.8
LGAFH [L-amino acid 5-mer array peptide]	52.3

Substance	S/B (signal to background ratio)
MHPQQ	29.0
PHPMS	30.6
MFHPQ	198.9
HHHPQ	143.8
NAHPQ	121.9
DYHPM	28.4
MQHPM	43.9
AMHPQ	124.0
RHPMS	30.8
WHPQI	41.5
STHPQ	139.4
RTHPM	49.0
LGEYH [L-amino acid 5-mer array peptide]	21.3
LGQFH [L-amino acid 5-mer array peptide]	21.5
DHPQH	31.2
VSHPQ	129.8
IKHPM	19.0
PPHPM	53.6
YLHPQ	152.2
YHPQA	168.4

Substance	S/B (signal to background ratio)
QHPQH	52.4
NHPQN	138.1
HGHPQ	129.3
NDHPM	32.0
HHPQN	150.9
TRHPM	53.7
QMHPQ	124.9
MPHPQ	180.4
WHHPM	129.3
HPQNI	48.9
HPQTG	28.1
ANHPM	47.0
HPQAG	125.6
LQHPQ	163.6
MVHPM	33.8
HHPQA	145.4
HHPQR	35.2
FAHPQ	186.9
FWHPQ	176.5

Same assay, conditions: 5-mer L-peptide library array, Cy5-streptavidin; from the average of three arrays

Substance	S/B (signal to background ratio)
YHPQQ	76.2
NEHPQ	58.6
KAHPQ	77.0
HHPMA	76.0
KTHPQ	86.3
QPHPQ	90.3
WTHPM	114.6
YDHPM	61.8
HDHPQ	112.6
NHPMA	59.8
QHPQS	87.0
KQHPQ	94.4
VAHPQ	118.6
MHPQF	107.7
TIHPQ	92.6
FHPQS	97.1
DFHPQ	75.2
WFHPM	87.4
EHPQN	71.2
LAHPM	62.9
PKHPQ	80.7
FSHPM	91.4

Same assay, conditions: 5-mer L-peptide library, from the average of three arrays

Substance	S/B (signal to background ratio)
HPMKP	4.6
WDAWE [L-amino acid 5-mer array peptide]	4.0
NHPMK	4.7
WHPMW	4.9
RHPMD	4.3
THPQL	4.2
YWTDG [L-amino acid 5-mer array peptide]	4.7
DWDSW [L-amino acid 5-mer array peptide]	4.9
HPQTV	4.3

Same assay, conditions: average of three arrays, L-peptide 5-mer library

Substance	S/B (signal to background ratio)
DPFGW [L-amino acid 5-mer array peptide]	10.1
WDAWE [L-amino acid 5-mer array peptide]	4.0
YWTDG [L-amino acid 5-mer array peptide]	4.7
LARYH [L-amino acid 5-mer array peptide]	12.2
DWDSW [L-amino acid 5-mer array peptide]	4.9
LGAFH [L-amino acid 5-mer array peptide]	52.3
LSVYH [L-amino acid 5-mer array peptide]	5.3
TPSFG [L-amino acid 5-mer array peptide]	6.3
LGEYH [L-amino acid 5-mer array peptide]	21.3
LGSFH [L-amino acid 5-mer array peptide]	8.7
LGQFH [L-amino acid 5-mer array peptide]	21.5
FDTWL [L-amino acid 5-mer array peptide]	7.3
MVAHF [L-amino acid 5-mer array peptide]	6.3

Same assay, conditions: signal to background ratio; 5-mer L-peptide library array, Cy5-streptavidin

Substance	S/B
DPFGW [L-amino acid 5-mer array peptide]	10.1
HPQAM	18.6
VHPMQ	9.6
VVHPM	15.5
HPQSI	7.3
HPQRP	9.4
HPQTA	10.4
EAHPM	16.5
AKHPM	18.3
LARYH [L-amino acid 5-mer array peptide]	12.2
NHPQK	14.8
LHPMY	7.0
HPQKN	7.8
LSVYH [L-amino acid 5-mer array peptide]	5.3
TPSFG [L-amino acid 5-mer array peptide]	6.3
LGSFH [L-amino acid 5-mer array peptide]	8.7

Substance	S/B
HPQQD	7.4
FDTWL [L-amino acid 5-mer array peptide]	7.3
HPMVF	5.3
GHPMY	11.0
HPQWQ	5.5
HPQHS	18.1
MVAHF [L-amino acid 5-mer array peptide]	6.3
HPQYY	9.4
HPMVA	12.1
PHPMF	10.9
DHPMY	6.4
HPAFM	5.7
HPQHY	11.4
WHPQP	10.7
HPQPG	5.6
HPQYR	7.0
